# Measured values: patent publication US10407409B2, “6-(5-hydroxy-1H-pyrazol-1-yl)nicotinamide inhibitors of PHD” (Takeda Pharmaceutical Company Limited, priority 2013, dated 2019)
# Key:
# [1] = test system: HIF1a protein in H9c2 rat cardiomyocytes; assay: Cell-based HIF-alpha stabilization assay (inhibition of PHD in cells); conditions: Rattus norvegicus, H9c2, 24 h, 24 hrs compound incubation, HIF1a protein by ELISA, read-out: Inhibition of PHD in cells (pEC50) (converted)
# Procedure, shortened: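 Rat H9c2 cardiomyocytes, cultured 24 h, were treated 24 h with an 11-point serial dilution of compound. HIF1a in whole-cell lysates was quantified by ELISA as % of the maximal desferrioxamine response. EC50 came from curve fitting; EC50pos is the concentration reaching 50% of the desferrioxamine maximum.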
# [2] = biological target: PHD2 enzyme (residues 181-417) (Homo sapiens (Human), UniProt Q9GZT9); assay: Inhibition of PHD enzyme (LC/MS peptide hydroxylation assay); assay type: biochemical; conditions: PHD2 (residues 181-417) 5 nM, 60 min pre-incubation, -log(IC50), IC50 molar
# PHD2 enzyme (residues 181-417), sequence (Q9GZT9 181-417): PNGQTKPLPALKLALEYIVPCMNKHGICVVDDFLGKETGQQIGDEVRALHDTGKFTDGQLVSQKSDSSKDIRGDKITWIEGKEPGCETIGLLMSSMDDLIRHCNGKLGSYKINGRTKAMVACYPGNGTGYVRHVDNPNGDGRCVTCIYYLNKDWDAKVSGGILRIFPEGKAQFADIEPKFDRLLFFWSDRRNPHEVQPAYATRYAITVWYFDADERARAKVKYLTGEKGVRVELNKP
# Procedure, shortened: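 PHD2 (5 nM final) preincubated with inhibitor 60 min at RT in 50 mM HEPES, 50 mM KCl, 0.5 mM TCEP, 2 uM FeCl2, 0.1 mg/ml BSA, pH 7.3. Reaction started with biotin-peptide (1 uM), 2-oxoglutarate (2 uM), ascorbate (1 mM), quenched at 60 min; hydroxylated product by LC/MS, reported as pIC50.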
Structure (SMILES),PHD Inhibition (pIC50) [2],IC50 ([2]; read-out: PHD Inhibition (pIC50) (converted)) [nM],EC50 [1] [nM]
"Cc1cc(C#N)ccc1-c1cnn(-c2ccc(C(=O)N3CCC[C@@H]3CN3CCCC3)cn2)c1O [Example 365, (R)-4-(5-hydroxy-1-(5-(2-(pyrrolidin-1-ylmethyl)pyrrolidine-1-carbonyl)pyridin-2-yl)-1H-pyrazol-4-yl)-3-methylbenzonitrile]",7.80,,417
"Cc1cc(C#N)ccc1-c1cnn(-c2ccc(C(=O)N(C)C3CCN(C)C3)cn2)c1O (stereo not drawn) [Example 368, 6-(4-(4-cyano-2-methylphenyl)-5-hydroxy-1H-pyrazol-1-yl)-N-methyl-N-(1-methylpyrrolidin-3-yl)nicotinamide]",7.89,,575
"CO[C@H](C)CCNC(=O)c1ccc(-n2ncc(-c3ccc(C#N)cc3C)c2O)nc1 [Example 371, (R)-6-(4-(4-cyano-2-methylphenyl)-5-hydroxy-1H-pyrazol-1-yl)-N-(3-methoxybutyl)nicotinamide]",8.20,,832
"Cc1cc(C#N)ccc1-c1cnn(-c2ccc(C(=O)N3CCC[C@H](N(C)C)C3)cn2)c1O [Example 376, (S)-4-(1-(5-(3-(dimethylamino)piperidine-1-carbonyl)pyridin-2-yl)-5-hydroxy-1H-pyrazol-4-yl)-3-methylbenzonitrile]",7.61,,891
"CCN1CCN(C(=O)c2ccc(-n3ncc(-c4ccc(C#N)cc4C)c3O)nc2)CC1(C)C [Example 378, 4-(1-(5-(4-ethyl-3,3-dimethylpiperazine-1-carbonyl)pyridin-2-yl)-5-hydroxy-1H-pyrazol-4-yl)-3-methylbenzonitrile]",8.21,,1290
"Cc1cc(C#N)ccc1-c1cnn(-c2ccc(C(=O)N3CCN(C(C)C)[C@H](C)C3)cn2)c1O [Example 379, (R)-4-(5-hydroxy-1-(5-(4-isopropyl-3-methylpiperazine-1-carbonyl)pyridin-2-yl)-1H-pyrazol-4-yl)-3-methylbenzonitrile]",8.20,,794
"CCN(CC)C1CCCN(C(=O)c2ccc(-n3ncc(-c4ccc(C#N)cc4C)c3O)nc2)C1 (stereo not drawn) [Example 380, 4-(1-(5-(3-(diethylamino)piperidine-1-carbonyl)pyridin-2-yl)-5-hydroxy-1H-pyrazol-4-yl)-3-methylbenzonitrile]",8.17,,575
"Cc1cc(C#N)ccc1-c1cnn(-c2ccc(C(=O)N3CCC[C@H](N4CCCC4)C3)cn2)c1O [Example 381, (S)-4-(5-hydroxy-1-(5-(3-(pyrrolidin-1-yl)piperidine-1-carbonyl)pyridin-2-yl)-1H-pyrazol-4-yl)-3-methylbenzonitrile]",7.94,,1070
"CCN(C)[C@@H]1CCCN(C(=O)c2ccc(-n3ncc(-c4ccc(C#N)cc4C)c3O)nc2)C1 [Example 382, (R)-4-(1-(5-(3-(ethyl(methyl)amino)piperidine-1-carbonyl)pyridin-2-yl)-5-hydroxy-1H-pyrazol-4-yl)-3-methylbenzonitrile]",8.00,,977
"Cc1cc(C#N)ccc1-c1cnn(-c2ccc(C(=O)N3CCC[C@@H](N(C)C4CC4)C3)cn2)c1O [Example 383, (R)-4-(1-(5-(3-(cyclopropyl(methyl)amino)piperidine-1-carbonyl)pyridin-2-yl)-5-hydroxy-1H-pyrazol-4-yl)-3-methylbenzonitrile]",8.28,,1100
"CCN(C)[C@H]1CCCN(C(=O)c2ccc(-n3ncc(-c4ccc(C#N)cc4C)c3O)nc2)C1 [Example 384, (S)-4-(1-(5-(3-(ethyl(methyl)amino)piperidine-1-carbonyl)pyridin-2-yl)-5-hydroxy-1H-pyrazol-4-yl)-3-methylbenzonitrile]",7.93,,1510
"Cc1cc(C#N)ccc1-c1cnn(-c2ccc(C(=O)N3CCC[C@@H](N4CCCC4)C3)cn2)c1O [Example 387, (R)-4-(5-hydroxy-1-(5-(3-(pyrrolidin-1l-yl)piperidine-1-carbonyl)pyridin-2-yl)-1H-pyrazol-4-yl)-3-methylbenzonitrile]",7.91,,871

# Continued, in another order:
PHD Inhibition (pIC50) [2],IC50 ([2]; read-out: PHD Inhibition (pIC50) (converted)) [nM],Structure (SMILES),EC50 [1] [nM]
7.701,,"CCC(CC)N1CCN(C(=O)c2ccc(-n3ncc(-c4ccc(C#N)cc4C)c3O)nc2)CC1 [Example 369, 4-(5-hydroxy-1-(5-(4-(pentan-3-yl)piperazine-1-carbonyl)pyridin-2-yl)-1H-pyrazol-4-yl)-3-methylbenzonitrile]",1200
8.287,,"CCN1CCN(C(=O)c2ccc(-n3ncc(-c4ccc(C#N)cc4C)c3O)nc2)C[C@@H]1C [Example 370, (S)-4-(1-(5-(4-ethyl-3-methylpiperazine-1-carbonyl)pyridin-2-yl)-5-hydroxy-1H-pyrazol-4-yl)-3-methylbenzonitrile]",562
8.26,,"Cc1cc(C#N)ccc1-c1cnn(-c2ccc(C(=O)N3CCN(C)[C@@H](C)C3)cn2)c1O [Example 372, (S)-4-(1-(5-(3,4-dimethylpiperazine-1-carbonyl)pyridin-2-yl)-5-hydroxy-1H-pyrazol-4-yl)-3-methylbenzonitrile]",832
8.00,,"Cc1cc(C#N)ccc1-c1cnn(-c2ccc(C(=O)N3CCN(C4CCC4)CC3)cn2)c1O [Example 373, 4-(1-(5-(4-cyclobutylpiperazine-1-carbonyl)pyridin-2-yl)-5-hydroxy-1H-pyrazol-4-yl)-3-methylbenzonitrile]",1200
8.06,,"Cc1cc(C#N)ccc1-c1cnn(-c2ccc(C(=O)N3CCN(C4CC4)[C@H](C)C3)cn2)c1O [Example 375, (R)-4-(1-(5-(4-cyclopropyl-3-methylpiperazine-1-carbonyl)pyridin-2-yl)-5-hydroxy-1H-pyrazol-4-yl)-3-methylbenzonitrile]",1000
8.44,,"Cc1cc(C#N)ccc1-c1cnn(-c2ccc(C(=O)N3CCN(C)C(C)(C)C3)cn2)c1O [Example 377, 4-(5-hydroxy-1-(5-(3,3,4-trimethylpiperazine-1-carbonyl)pyridin-2-yl)-1H-pyrazol-4-yl)-3-methylbenzonitrile]",813
8.18,,"Cc1cc(C#N)ccc1-c1cnn(-c2ccc(C(=O)N3CCN(C)C[C@H]3C)cn2)c1O [Example 385, (R)-4-(1-(5-(2,4-dimethylpiperazine-1-carbonyl)pyridin-2-yl)-5-hydroxy-1H-pyrazol-4-yl)-3-methylbenzonitrile]",955
8.25,,"CCN1CCN(C(=O)c2ccc(-n3ncc(-c4ccc(C#N)cc4C)c3O)nc2)C[C@H]1C [Example 388, (R)-4-(1-(5-(4-ethyl-3-methylpiperazine-1-carbonyl)pyridin-2-yl)-5-hydroxy-1H-pyrazol-4-yl)-3-methylbenzonitrile]",513
8.20,,"Cc1cc(C#N)ccc1-c1cnn(-c2ccc(C(=O)N3CCN(C4CC4)[C@@H](C)C3)cn2)c1O [Example 389, (S)-4-(1-(5-(4-cyclopropyl-3-methylpiperazine-1-carbonyl)pyridin-2-yl)-5-hydroxy-1H-pyrazol-4-yl)-3-methylbenzonitrile]",1150
8.29,,"Cc1cc(C#N)ccc1-c1cnn(-c2ccc(C(=O)N3CCN(C)C4(CC4)C3)cn2)c1O [Example 390, 4-(5-hydroxy-1-(5-(4-methyl-4,7-diazaspiro[2.5]octane-7-carbonyl)pyridin-2-yl)-1H-pyrazol-4-yl)-3-methylbenzonitrile]",955
8.20,,"Cc1cc(C#N)ccc1-c1cnn(-c2ccc(C(=O)N3CCN(C)[C@H](C)C3)cn2)c1O [Example 392, (R)-4-(1-(5-(3,4-dimethylpiperazine-1-carbonyl)pyridin-2-yl)-5-hydroxy-1H-pyrazol-4-yl)-3-methylbenzonitrile]",355
,13.8,"Cc1cc(C#N)ccc1-c1cnn(-c2ccc(C(=O)N3CCN(C(C)C)[C@@H](C)C3)cn2)c1O [Example 393, (S)-4-(5-hydroxy-1-(5-(4-isopropyl-3-methylpiperazine-1-carbonyl)pyridin-2-yl)-1H-pyrazol-4-yl)-3-methylbenzonitrile]",1450
7.88,,"Cc1cc(C#N)c(F)cc1-c1cnn(-c2ccc(C(=O)N3CC(N(C)C)C3)cn2)c1O [Example 394, 4-(1-(5-(3-(dimethylamino)azetidine-1-carbonyl)pyridin-2-yl)-5-hydroxy-1H-pyrazol-4-yl)-2-fluoro-5-methylbenzonitrile]",2820
8.48,,"CCN1CCN(C(=O)c2ccc(-n3ncc(-c4cc(F)c(C#N)cc4C)c3O)nc2)C[C@H]1C [Example 395, (R)-4-(1-(5-(4-ethyl-3-methylpiperazine-1-carbonyl)pyridin-2-yl)-5-hydroxy-1H-pyrazol-4-yl)-2-fluoro-5-methylbenzonitrile]",2630
8.59,,"Cc1cc(C#N)c(F)cc1-c1cnn(-c2ccc(C(=O)N3CCN(C)CC3)cn2)c1O [Example 396, 2-fluoro-4-(5-hydroxy-1-(5-(4-methylpiperazine-1-carbonyl)pyridin-2-yl)-1H-pyrazol-4-yl)-5-methylbenzonitrile]",2090
